Non-standard residues stand in square brackets, D forms with d. Residues, ends and D or L forms follow the SMILES beside them. *: point of attachment. 5FAM = O=C1OC2(c3ccc(O)cc3Oc3cc(O)ccc32)c2ccc(C(=O)*)cc21; 6FAM = O=C1OC2(c3ccc(O)cc3Oc3cc(O)ccc32)c2cc(C(=O)*)ccc21; NMeR = CN[C@@H](CCCNC(=N)N)C(=O)O; NMeA = CN[C@@H](C)C(=O)O
Assays:
[1] = Degradation assay in freeze-thaw lysates, D. discoideum; format: in vitro ADME; settings: 10 μM reporter, 25 °C, CE-LIF
Description: (§1) Degradation assays were conducted as described previously.[38] Briefly, aliquots of vegetative cells were washed twice, resuspended in ice-cold phosphate buffered saline at a density of 2 × 10^8 cells/mL and lysed by three freeze–thaw cycles using liquid nitrogen. The resulting lysate was clarified by 5 min centrifugation at 15,000 × g, and the supernatant was stored at −80 °C. The total protein concentration was determined using a fluorescamine assay with a bovine serum albumin (BSA) calibration curve.[39] Briefly, three parts diluted lysate (or BSA standard) in 30 mM borate buffer (pH 9) and one part 3 mg/mL fluorescamine in acetone were incubated for 5 min in the dark at room temperature. The fluorescence at 475 nm was then measured using 390 nm excitation. Based on this assay, the lysate was diluted to a concentration of 3 mg/mL in phosphate buffered saline. The degradation reaction was run at 25 °C and initiated by addition of 10 μM reporter to the diluted lysate. At fixed time points, aliquots were removed, and the reaction was stopped by incubation for 4 min at 95 °C.
(§2) To study degradation kinetics, we fit the data for each full-length peptide to a first-order reaction model and determined the half-life for each peptide for three biological replicates (Figure 5b-d, Table 3). Degradation rates and half-lives varied widely between organisms and peptides; however, some general trends were apparent. For all peptides, degradation was much faster in T. thermophila than in D. discoideum. T. thermophila is known to produce and secrete cysteine proteases and is a large ([…]), fast-growing cell. […] Further characterization of protease expression in these strains may be helpful identifying the enzyme(s) primarily responsible for degradation of these reporters.

[2] = Degradation assay in freeze-thaw lysates, T. thermophila B2086.2; format: in vitro ADME; settings: freeze–thaw lysate of vegetative T. thermophila B2086.2 cells, 3 mg/mL total protein in PBS, no protease inhibitors, 10 μM reporter, 25 °C, CE-LIF, first-order fit, ± SD, 3 biological replicates
Description: as §1, §2

[3] = tested on: PKBA; assay: Effect of LY294002 treatment on reporter phosphorylation in cAMP-stimulated D. discoideum; format: cell-based; settings: 15 μM LY294002 for 1 min before cAMP stimulation; lysed 15 s after stimulation; 1 h social development; all three reporters; n = 3 biological replicates
Description: (§3) Next, we tested pharmacological treatment of D. discoideum. We treated cells for 1 min with 15 μM LY294002, a PI3K inhibitor. LY294002 has been shown previously to reduce PKBA activity in D. discoideum.[53],[55]−[57] […] The magnitude of this effect was quite similar for all three peptides; percent phosphorylation of cAMP-stimulated cells decreased to 33–34% of the untreated phosphorylation levels upon LY294002 treatment.

[4] = tested on: PKBA; settings: read-out: EC50 for PKBA in D. discoideum; cited from earlier work
Description: as §3

[5] = tested on: PKBA; assay: Phosphorylation of peptide substrate reporters in D. discoideum lysates (CE-LIF); format: biochemical; settings: lysates from chemotaxis-competent D. discoideum 20–30 s after 1 μM cAMP stimulation; 5 μM reporter, 2 mM ATP, 0.4–0.6 mg/mL protein, room temperature, lysis buffer with phosphatase and protease inhibitors; reactions with ≤10% total phosphorylation; MEKC CE-LIF
Source text: (§4) In addition to confirming that all three reporters were phosphorylated in lysates from both cell types, we also characterized the kinetics of the phosphorylation, which varied substantially between organisms. Using reactions with ≤10% total phosphorylation, we determined the phosphorylation rate for lysates from stimulated cells in units of zeptomoles of phosphorylated product per picogram of total protein per second (zmol pg^–1 s^–1; Table 2). […] For D. discoideum, B-5/I was the next most preferred substrate. This kinetic trend is similar to that observed in human cells. Crosstide and a truncated version of B-5/I have similar values for Vmax with human Akt1, but the KM value is about 5-fold lower for Crosstide.[25] The value of Vmax has not been determined for VI–B with Akt1, but its phosphorylation rate is known to be slower than that of B-5/I.[13]

[6] = tested on: PHK5; assay: Phosphorylation of peptide substrate reporters in T. thermophila lysates (CE-LIF); format: biochemical; settings: lysates from T. thermophila 2 h into conjugation, 20–30 s after 2% proteose peptone; 5 μM reporter, 2 mM ATP, room temperature, lysis buffer with phosphatase and protease inhibitors; reactions with ≤10% total phosphorylation; MEKC CE-LIF
Description: (§5) For T. thermophila lysates, mating was induced by mixing equal cell numbers of B2086.2 and CU428.2 strains that had been starved for 16 h at 30 °C in unshaken Dryl’s buffer (2 mM phosphate buffer, 2 mM citrate, 1.5 mM CaCl2). Two hours after cells were mixed, microscopy was used to confirm that >75% of cells were paired. Samples were then lysed with an equal volume of ice-cold 2× lysis buffer, before and 30 s after addition of 20% proteose peptone stock to a final concentration of 2% or other stimuli as noted.
as §4

[7] = Degradation assay in freeze-thaw lysates, T. thermophila CU428.2; format: in vitro ADME; settings: T. thermophila strain CU428.2 freeze–thaw lysate, based on the first 5 min of each reaction; 3 mg/mL protein, 10 μM reporter, 25 °C, CE-LIF
Description: as §1
To study degradation kinetics, we fit the data for each full-length peptide to a first-order reaction model and determined the half-life for each peptide for three biological replicates (Figure 5b-d, Table 3). […]

[8] = tested on: intact human prostate cancer cells (LNCaP); settings: cited from earlier work
Description: (§6) These rates are much higher than rates obtained in intact human prostate cancer cells (LNCaP, 0.04 zmol pg^–1 s^–1)[6] and pancreatic cancer cell lines (0.02–0.1 zmol pg^–1 s^–1)[28],[50] with the same reporter. Our assays were conducted in lysates containing phosphatase inhibitors, which will increase the apparent activity of PKB by removing the effects of any opposing phosphatases. Additionally, higher phosphorylation rates may arise from differing expression levels of PKB ...

[9] = tested on: pancreatic cancer cell lines; settings: intact pancreatic cancer cell lines; cited from earlier work
Description: as §6

[10] = tested on: PHK5; format: cell-based; settings: mating T. thermophila treated 20 s with 1 μM stimulus (2% for proteose peptone) prior to lysis; 15 min incubation of Crosstide in lysate; n = 2–3 biological replicates
Description: as §5, with “Two hours after cells were mixed, microscopy was used to confirm that >75% of cells were paired.” left out
The protein concentrations of lysates were determined using the fluorescamine assay described above, and lysates were diluted to the same final concentration (0.4–0.6 mg/mL) in 1× lysis buffer. […] Phosphorylation reactions were conducted in kinase buffer (25 mM MOPS, pH 7.4, 20 mM magnesium chloride, 25 mM glycerophosphate, 1 mM DTT).[41] The peptide substrate reporter was added to a final concentration of 5 μM, and the reaction was started by addition of a final concentration of 2 mM ATP. The reaction was run at room temperature and stopped by the addition of CE run buffer. Negative control experiments were performed by substituting deionized water for ATP or denaturing the lysate with heat before the addition of peptide.
Samples were analyzed using micellar electrokinetic chromatography (MEKC) in a PA-800 Plus capillary electrophoresis instrument (Beckman Coulter). […] The same buffer was used for phosphorylation assays of Crosstide. […] For all VI–B assays, the run buffer was 100 mM borate, 15 mM SDS, pH 11.4. The capillary was 50 μm diameter bare silica, 21 cm effective length with an applied potential of 400 V/cm. […] Peak integration was performed using 32 Karat (v. 10.1) software.
Cells were treated with a final concentration of 1 μM stimulus for 20 s prior to lysis.

[11] = freeze–thaw lysate of vegetative D. discoideum cells, 3 mg/mL total protein in PBS, no protease inhibitors, first-order fit, ± SD, 3 biological replicates

Molecule: C[C@H](NC(=O)[C@H](C)NC(=O)[C@H](CCCNC(=N)N)NC(=O)[C@@H]1CCCN1C(=O)[C@H](CCCNC(=N)N)NC(=O)CNC(=O)c1ccc2c(c1)C1(OC2=O)c2ccc(O)cc2Oc2cc(O)ccc21)C(=O)N[C@H](C(=O)N[C@@H](Cc1ccccc1)C(=O)N[C@@H](C)C(=O)N[C@@H](CCC(=O)O)C(=O)NCC(N)=O)[C@@H](C)O [B-5/I] (6FAM-GRPRAATFAEG-NH2)
- half-life at 10 μM [1, 11]: 51 ± 4 min
- half-life at 10 μM [2]: 12 ± 4 min

Molecule: C[C@H](NC(=O)[C@H](Cc1ccccc1)NC(=O)[C@H](CO)NC(=O)[C@H](CO)NC(=O)[C@@H](NC(=O)[C@H](CCCNC(=N)N)NC(=O)[C@@H]1CCCN1C(=O)[C@H](CCCNC(=N)N)NC(=O)CNC(=O)c1ccc2c(c1)C(=O)OC21c2ccc(O)cc2Oc2cc(O)ccc21)[C@@H](C)O)C(=O)N[C@@H](CCC(=O)O)C(=O)NCC(=O)O [Crosstide] (5FAM-GRPRTSSFAEG-OH)
- half-life at 10 μM [1, 11]: 117 ± 10 min
- half-life at 10 μM [2]: 8 ± 1 min

Molecule: O=c1cc(N2CCOCC2)oc2c(-c3ccccc3)cccc12 [LY294002]
- percent phosphorylation of cAMP-stimulated cells, as % of the untreated phosphorylation levels [3]: 33–34%
- EC50 [4]: 15 µM

Molecule: C[C@H](NC(=O)[C@H](CCCNC(=N)N)N(C)C(=O)[C@@H]1CCCN1C(=O)[C@H](CCCNC(=N)N)NC(=O)CNC(=O)c1ccc2c(c1)C1(OC2=O)c2ccc(O)cc2Oc2cc(O)ccc21)C(=O)N[C@@H](Cc1ccccc1)C(=O)N[C@H](C(=O)N[C@@H](Cc1ccccc1)C(=O)N(C)[C@@H](C)C(N)=O)[C@@H](C)O [VI–B] (6FAM-GRP[NMeR]AFTF[NMeA]-NH2)
- phosphorylation rate [5]: 1.4 ± 0.2 zmol pg^–1 s^–1
- phosphorylation rate [6]: 4.1 ± 0.9 zmol pg^–1 s^–1
- initial rate of fragmentation in lysates ([1]; D. discoideum freeze–thaw lysate, based on the first 15 min of each reaction, pmol peptide per mg total protein per second, 3 mg/mL protein): 0.3 ± 0.1 pmol mg^–1 s^–1
- half-life ([1]; cells or culture medium, freeze–thaw lysate of vegetative D. discoideum cells, 3 mg/mL total protein in PBS, no protease inhibitors, first-order fit, ± SD, 3 biological replicates): 184 ± 65 min
- half-life ([2]; cells or culture medium): 22 ± 4 min
- initial degradation rate in lysates [7]: 5.1 ± 0.3 pmol mg^–1 s^–1
- phosphorylation rate [8]: 0.04 zmol pg^–1 s^–1
- phosphorylation rate [9]: 0.02–0.1 zmol pg^–1 s^–1

Molecule: Nc1nc2c(ncn2[C@@H]2O[C@@H]3COP(=O)(O)O[C@H]3[C@H]2O)c(=O)[nH]1 [cGMP]
- change in phosphorylation activity toward Crosstide after stimulus [10]: None of these stimuli resulted in increased phosphorylation activity

Molecule: NCCc1c[nH]cn1 [histamine]
- change in phosphorylation activity toward Crosstide after stimulus [10]: None of these stimuli resulted in increased phosphorylation activity

Molecule: NCCc1c[nH]c2ccc(O)cc12 [serotonin]
- change in phosphorylation activity toward Crosstide after stimulus [10]: None of these stimuli resulted in increased phosphorylation activity

Molecule: concavalin A
- change in phosphorylation activity toward Crosstide after stimulus [10]: None of these stimuli resulted in increased phosphorylation activity

Molecule: insulin
- change in phosphorylation activity toward Crosstide after stimulus [10]: None of these stimuli resulted in increased phosphorylation activity
